# Values joined by “and” are separate entries in the source; they are usually repeats but may differ in a detail not shown here. Equal values may be shown once. Read-outs that look alike come from different tables or passages of the source.
# Key:
# SARS-CoV-2-nLUC [1] = type: cell-based; settings: Nirmatrelvir 0 uM, sheet S3B, replicates
# [2] = Fifty MPK twice daily; cited from earlier work
# [3] = Pharmacokinetics after single IP administration; settings: K18-hACE2(Tg) C57Bl/6J, mouse, 40 mg/kg; for Kp / concentration at 24 h / half-life: in vivo, single IP; for Kp: AUC ratio (Tissue/PL); for concentration at 24 h: C24h
# lysosomal compartment = test: LysoTracker staining of VeroTA6 cells
# Protocol: (A) VeroTA6 cells were seeded
# post treatment, the cells were stained with lysotracker (Thermofisher, L7528) and visualized under
# the microscope (left). The fluorescence intensity was captured and quantified for each treatment
# B), the significance was calculated using one-way ANOVA with Dunnett’s test with multiple
# comparison to the DMSO control, and the P values are depicted as ns for P>0.05, ** for P <0.01,
# [4] = test system: SARS-CoV-2 BA.1 (Omicron); type: cell-based; settings: VeroE6, 10 μM LNF, 24 h, DMSO = 100%
# [5] = test system: SARS-CoV-2 spike protein–mediated cell-cell fusion (B.1.1.7); type: cell-based; settings: 48 h
# viral RdRp = viral RdRp (Severe acute respiratory syndrome coronavirus 2, UniProt P0DTD1); test: In vitro RdRp activity assay (RNA extension); type: biochemical, SARS-CoV-2; settings: LNF 0.1, 1 and 10 μM; TEMPOL 100 μM
# in vitro = settings: human
# [6] = test system: SARS-CoV-2 strain USA-WA1/2020; type: in vivo, mouse; settings: for Viral titer Log10: individual animals, sheet S9B
# SARS-CoV-2 = type: cell-based; settings: for percentage replication relative to untreated, infected control: LNF 10 μM
# SARS-CoV-2 RDPs = test: microbe, parasite or virus in culture; type: cell-based; settings: for EC50: Huh7.5 ACE-TMPRSS2, Gluc RDPs, 24 h
# SARS-CoV-2 Wuhan = type: cell-based; settings: VeroE6, 10 μM LNF, 24 h, DMSO = 100%
# [7] = Pharmacokinetics after PO administration; settings: K18-hACE2(Tg) C57Bl/6J, mouse, 25 mg/kg; for Kp / half-life: in vivo, PO; for Kp: AUC ratio (Tissue/PL)
# [8] = test system: SARS-CoV-2 strain USA-WA1/2020; type: in vivo, mouse
# SARS-CoV-2-nLUC [9] = type: cell-based; settings: Nirmatrelvir 0 uM
# [10] = test system: SARS-CoV-2 (Wuhan strain); type: cell-based; settings: replicates
smiles,measurement,setting,value
"NC(=O)N1CCC(CC(=O)N2CCC([C@H]3c4ncc(Br)cc4CCc4cc(Cl)cc(Br)c43)CC2)CC1 [LNF, lonafarnib]",Response,SARS-CoV-2-nLUC [1]; Lonafarnib 0.15625 uM,2.22 and 4.213 and 2.074
same,Response,SARS-CoV-2-nLUC [1]; Lonafarnib 0.3125 uM,1.244 and 2.405 and 2.249
same,Response,SARS-CoV-2-nLUC [1]; Lonafarnib 0.625 uM,-2.027 and 1.3173 and 0.3833
same,Response,SARS-CoV-2-nLUC [1]; Lonafarnib 1.25 uM,5.206 and 5.033 and 2.62
same,Response,SARS-CoV-2-nLUC [1]; Lonafarnib 2.5 uM,26.488 and 26.5645 and 16.3468
same,Response,SARS-CoV-2-nLUC [1]; Lonafarnib 5 uM,76.2414 and 75.9942 and 62.6493
same,toxicity in preclinical mouse studies,[2],without any toxicity
same,AUC(0-inf),[3]; brain,29 µM·h
same,Cmax,[3]; brain,1.46 µM
same,Tmax,[3]; brain,7 h
same,AUC(0-inf),[3]; heart,987 µM·h
same,Cmax,[3]; heart,94.1 µM
same,Tmax,[3]; heart,0.5 h
same,Kp,[3]; Brain,0.12
same,Kp,[3]; Heart,3.9
same,Kp,[3]; Kidney,2.8
same,Kp,[3]; Liver,12
same,Kp,[3]; Lung,3.1
same,concentration at 24 h,[3]; Brain,0.36 µM
same,concentration at 24 h,[3]; Heart,11.4 µM
same,concentration at 24 h,[3]; Kidney,8.24 µM
same,concentration at 24 h,[3]; Liver,40.3 µM
same,concentration at 24 h,[3]; Lung,8.17 µM
same,concentration at 24 h,[3]; Plasma,2.76 µM
same,half-life,"[3]; t1/2, Brain",8.3 h
same,half-life,"[3]; t1/2, Heart",10.1 h
same,half-life,"[3]; t1/2, Kidney",9 h
same,half-life,"[3]; t1/2, Liver",10.7 h
same,half-life,"[3]; t1/2, Lung",8.7 h
same,half-life,"[3]; t1/2, Plasma",8.8 h
same,AUC(0-inf),[3]; kidney,699 µM·h
same,Cmax,[3]; kidney,46 µM
same,Tmax,[3]; kidney,1 h
same,AUC(0-inf),[3]; liver,3060 µM·h
same,Cmax,[3]; liver,224 µM
same,Tmax,[3]; liver,0.25 h
same,AUC(0-inf),[3]; lung,788 µM·h
same,Cmax,[3]; lung,93.5 µM
same,Tmax,[3]; lung,0.25 h
same,AUC(0-inf),[3]; plasma,253 µM·h
same,Cmax,[3]; plasma,63.3 µM
same,Tmax,[3]; plasma,0.08 h
same,LysoTracker fluorescence intensity,"lysosomal compartment; VeroTA6, 10 μM, 30 min",significantly higher fluorescence intensity
same,Lysotracker,"lysosomal compartment; sheet S5A, individual measurements",1000.41 and 1078.15 and 1357.74 and 1025.55 and 1236.53 and 1375.69 and 1111.13 and 939.183 and 1788.26 and 2301.51 and 898.567 and 730.339 and 642.99 and 1893.93 and 696.429 and 1937.99 and 1199.36 and 1178.39 and 1146.54 and 1719.14 and 1470.88 and 572.253 and 1006.33
same,% Genome,[4],3.11% and 3.81% and 4.35%
same,relative luciferase signals,[5]; Conc-mM 0.3 (printed),87.1833 and 82.9457 and 81.1177 and 86.5186
same,relative luciferase signals,[5]; Conc-mM 1 (printed),76.2725 and 76.052 and 86.6016 and 79.6419
same,relative luciferase signals,[5]; Conc-mM 3 (printed),59.768 and 61.4378 and 52.374 and 53.9099
same,relative luciferase signals,[5]; Conc-mM 10 (printed),35.1915 and 32.9108 and 27.2582 and 33.268
same,"polymerase activity, primer extension",viral RdRp,not affected
same,CC50,in vitro,> 30 µM
same,lung viral titer lower than vehicle-treated group,"[6]; 40 MPK IP twice daily, […]",~2 log
same,Viral titer Log10,[6]; D2,7.238 Log10 and 6.041 Log10 and 6.833 Log10 and 6.059 Log10 and 6.826 Log10 and 4.954 Log10 and 7.083 Log10 and 4.756 Log10
same,Viral titer Log10,[6]; D5,6.491 Log10 and 7.228 Log10 and 6.919 Log10 and 6.362 Log10 (2×) and 6.681 Log10 and 7.255 Log10 and 4 Log10 and 7.033 Log10
same,Titer Log10,"[6]; Day 2, individual animals",1.954 (5×) and 2 and 4.538 and 2.301 and 3.13 (2×)
same,Titer Log10,"[6]; Day 5, individual animals",1.954 (3×) and 2.301 and 3.23 and 3.176 and 2.699 and 2.602 and 3.398 and 2.477
same,lung viral titer,"[6]; LNF 40 MPK IP, RDV 25 MPK SC, twice daily",significantly lowered the viral titer in the lung
same,time-of-addition result,SARS-CoV-2,high efficacy of LNF even if the drug was added 4–24 hours after infection
same,effect on early events of viral infection,"SARS-CoV-2; Calu3, 10 μM",little or no effect on the early events of viral infection
same,effect when drug present during an initial period of viral infection,"SARS-CoV-2; VeroE6, 10 μM",50%
same,"percentage replication relative to untreated, infected control","SARS-CoV-2; VeroE6, drug present (0,4) h",51.9274% and 49.1443% and 50.2213% and 50.0245% and 32.7935% and 31.4407% and 36.9633% and 35.1922%
same,"percentage replication relative to untreated, infected control","SARS-CoV-2; VeroE6, drug present (0,24) h",1.998% and 1.949% and 1.813% and 1.81% and 1.891% and 1.817% and 1.711% and 1.724%
same,"percentage replication relative to untreated, infected control","SARS-CoV-2; VeroE6, drug present (2,4) h",73.914% and 71.0289% and 54.3207% and 56.213% and 71.519% and 69.7874% and 67.1461% and 65.4707%
same,"percentage replication relative to untreated, infected control","SARS-CoV-2; VeroE6, drug present (2,24) h",3.962% and 4.023% and 3.69% and 3.889% and 3.6% and 3.5757% and 3.292% and 3.351%
same,"percentage replication relative to untreated, infected control","SARS-CoV-2; VeroE6, drug present (4,24) h",4.215% and 4.26% and 5.337% and 5.659% and 5.734% and 5.806% and 3.6315% and 3.627%
same,"percentage replication relative to untreated, infected control","SARS-CoV-2; VeroE6, drug present (-2,0) h",98.397% and 97.5913% and 93.062% and 94.6733% and 95.1896% and 94.1548% and 95.9294% and 95.558%
same,"percentage replication relative to untreated, infected control","SARS-CoV-2; VeroE6, drug present (-2,2) h",55.8703% and 55.9821% and 50.6506% and 51.7567% and 51.3569% and 50.1515% and 51.6639% and 51.979%
same,"percentage replication relative to untreated, infected control","SARS-CoV-2; VeroE6, drug present (-2,4) h",43.6671% and 43.2347% and 41.1828% and 42.7136% and 40.9571% and 40.8036% and 42.923% and 42.3078%
same,"percentage replication relative to untreated, infected control","SARS-CoV-2; VeroE6, drug present (-2,24) h",1.731% and 1.694% and 2.365% and 2.435% and 2.361% and 2.315% and 1.913% and 1.91%
same,EC50,SARS-CoV-2 RDPs,10.4 µM
same,Inhibition,SARS-CoV-2 RDPs; Log[LNF} mM 1,53.2589 and 40.1773 and 43.3748 and 43.6359
same,EC50,"SARS-CoV-2 RDPs; Severe acute respiratory syndrome coronavirus 2, Huh7.5, 24 h",10.5 µM
same,% Genome,SARS-CoV-2 Wuhan,8.96% and 1.08% and 1.45%
same,AUC(0-inf),[7]; brain,3 µM·h
same,Cmax,[7]; brain,0.21 µM
same,Tmax,[7]; brain,7 h
same,AUC(0-inf),[7]; heart,97 µM·h
same,Cmax,[7]; heart,8.6 µM
same,Tmax,[7]; heart,1 h
same,Kp,[7]; Brain,0.056
same,Kp,[7]; Heart,1.8
same,Kp,[7]; Kidney,2.1
same,Kp,[7]; Liver,5.2
same,Kp,[7]; Lung,2.4
same,half-life,"[7]; t1/2, Brain",2.4 h
same,half-life,"[7]; t1/2, Heart",2.2 h
same,half-life,"[7]; t1/2, Kidney",2.4 h
same,half-life,"[7]; t1/2, Liver",1.7 h
same,half-life,"[7]; t1/2, Lung",2.1 h
same,half-life,"[7]; t1/2, Plasma",1.4 h
same,AUC(0-inf),[7]; kidney,113 µM·h
same,Cmax,[7]; kidney,9.3 µM
same,Tmax,[7]; kidney,1 h
same,AUC(0-inf),[7]; liver,279 µM·h
same,Cmax,[7]; liver,20 µM
same,Tmax,[7]; liver,7 h
same,AUC(0-inf),[7]; lung,129 µM·h
same,Cmax,[7]; lung,33 µM
same,Tmax,[7]; lung,0.25 h
same,AUC(0-inf),[7]; plasma,53 µM·h
same,Cmax,[7]; plasma,3.8 µM
same,Tmax,[7]; plasma,7 h
same,Histopathology Score,"[8]; Day 2, individual animals",2 (2×) and 1 and 0.5 and 1.5 (3×) and 0 (3×)
same,Histopathology Score,"[8]; Day 5, individual animals",0.5 (3×) and 1 (4×) and 2.5 and 1.5 and 0
same,lung histopathology score vs vehicle,[8]; day 5,significantly lower histopathology score
same,Response,SARS-CoV-2-nLUC [9]; Lonafarnib 2.5 uM,71.2556 and 72.7427 and 61.8907
same,Response,SARS-CoV-2-nLUC [9]; Lonafarnib 5 uM,96.7703 and 97.5859 and 97.3674
same,percentage of N-positive cells relative to DMSO,"[10]; Fig 1B, 5 mM (printed)",45.291% and 39.2779% and 27.7255% and 32.1523% and 27.1799% and 44.2583% and 28.0879%
same,percentage of N-positive cells relative to DMSO,"[10]; Fig 1B, 10 mM (printed)",6.293% and 7.566% and 7.349% and 6.272% and 7.2903% and 7.5535% and 6.442%
same,percentage of N-positive cells relative to DMSO,"[10]; Fig 1C, 5 mM (printed)",10.1344% and 5.318% and 6.858% and 5.707% and 14.6837% and 5.046% and 43.0964%
same,percentage of N-positive cells relative to DMSO,"[10]; Fig 1C, 10 mM (printed)",4.886% and 4.575% and 6.603% and 7.209% and 6.0224% and 5.548% and 4.54%

# — article PMC11721293 (JCI Insight, 2025)
